Legend:
[1] = system: ascaris-immunized mouse splenocytes; assay: Ascaris-immunized mouse splenocytes (in vitro): DNP-ascaris stimulated growth, MTT; type: cell-based, Balb/c mice; settings: Splenocyte, 72 h, 25 µM test drug, 12.5 µg/ml DNP-ascaris, 3 days, absorbance in absence of compound taken as 100%, read-out: Suppression Rate (%) MTT
Description: (§1) Method: Female Balb/c mice at 9 weeks of age (purchased from Shizuoka Laboratory Animal Center, Japan) were intraperitoneally administered 40 µg/mouse DNP-ascaris (2,4-dinitrophenylated ascaris extract, produced by LSL), together with Freund's complete adjuvant (FCA, produced by Difco, USA), and, 3 weeks later, splenocytes were collected. Splenocyte mixture was prepared from the spleens and suspended in RPMI-1640 medium (produced by Bio Whittaker, Inc., USA) containing inactivated fetal bovine serum (10% v/v, produced by Difco, USA), 2-mercaptoethanol (50 µM), L-glutamine (2 mM) and gentamicin (20 µg/ml) to yield a single cell suspension. After cell number was set to 3.3 × 10^6 cells/ml, DNP-ascaris was added to 96-well round-bottomed plates (produced by Sumitomo Bakelite Co., Ltd., Japan) containing a 25 µM test drug, at 12.5 µg/ml, and cultured at 37°C for 3 days in a 5% carbon dioxide incubator. After completion of cultivation, 3-(4,5-dimethylthiazol-2-yl)-2,5-diphenyl-tetrazolium bromide (MTT, produced by Dojin Kenkyujo, Japan) in PBS buffer was added to each well at 0.86 mg/ml, followed by cultivation in the carbon dioxide incubator for 6 hours. To this culture, a 10% SDS-0.01 N HCl mixture was added at 50 µl per well, followed by incubation in the carbon dioxide incubator for 18 hours, after which absorbance at 620 nm was determined.

[2] = system: ascaris-immunized mouse splenocytes; assay: Ascaris-immunized mouse splenocytes (in vivo dosing): DNP-ascaris specific growth response, MTT; parameters: species or system Balb/c mice; settings: 100 mg/kg/day orally 5 times weekly for 3 weeks; splenocytes cultured with 12.5 µg/ml DNP-ascaris 3 days; absorbance of non-sensitized splenocytes taken as 1 (sensitized 0.5% MC control 5.52)
Description: Method: Female Balb/c mice at 9 weeks of age (purchased from Shizuoka Laboratory Animal Center, Japan) were intraperitoneally administered 40 µg/mouse DNP-ascaris (2,4-dinitrophenylated ascaris extract, produced by LSL) together with Freund's complete adjuvant (FCA, produced by Difco, USA), 3 weeks later, splenocytes were collected. The compound 1((±)-7-(3,5,6-trimethyl-1,4-benzoquino-2-yl)-7-phenylheptonoic acid) was suspended in 0.5% methyl cellulose (MC) and orally administered at 100 mg/kg/day 5 times weekly for 3 weeks, starting at the day before DNP-ascaris administration. After final oral administration, the splenocyte mixture was prepared from the spleens of 5 animals per group, and suspended in RPMI-1640 medium (produced by Bio Whittaker, Inc., USA) containing inactivated fetal bovine serum (10% v/v, produced by Difco, USA), 2-mercaptoethanol (50 µM), L-glutamine (2 mM) and gentamicin (20 µg/ml) to yield a single cell suspension. After cell number was set to 3.3 × 10^6 cells/ml, DNP-ascaris was added to 96-well round-bottomed plates (produced by Sumitomo Bakelite Co., Ltd., Japan) at 12.5 µg/ml, and cultured at 37°C for 3 days in an incubator containing 5% carbon dioxide. […] To this culture, a 10% SDS-0.01N HCl mixture was added at 50 µl per well, followed by incubation in the carbon dioxide incubator for 18 hours, after which absorbance at 620 nm was determined.

IL-5 [3] = assay: Ascaris-immunized mouse splenocytes (in vivo dosing): IL-5 production, ELISA; parameters: species or system Balb/c mice; settings: 100 mg/kg/day orally 5 times weekly for 3 weeks; splenocytes cultured with 40 µg/ml DNP-ascaris 3 days; non-sensitized taken as 1 (sensitized 0.5% MC control 43.3)
Description: (§2) Method: Female Balb/c mice at 9 weeks of age (purchased from Shizuoka Laboratory Animal Center, Japan) were intraperitoneally administered 40 µg/mouse DNP-ascaris (2,4-dinitrophenylated ascaris extract, produced by LSL) together with Freund's complete adjuvant (FCA, produced by Difco, USA), 3 weeks later, splenocytes were collected. The compound 1((±)-7-(3,5,6-trimethyl-1,4-benzoquino-2-yl)-7-phenylheptonoic acid) was suspended in 0.5% methyl cellulose (MC) and orally administered at 100 mg/kg/day 5 times weekly for 3 weeks, starting at the day before DNP-ascaris administration. […] To this culture, a 10% SDS-0.01N HCl mixture was added at 50 µl per well, followed by incubation in the carbon dioxide incubator for 18 hours, after which absorbance at 620 nm was determined.
(§3) Next, DNP-ascaris was added to a 1.2 × 10^6 cells/ml splenocyte suspension in each 96-well round-bottomed plate at 40 µg/ml and cultured at 37°C for 3 days in the 5% carbon dioxide incubator. After this culture was centrifuged at 200 x g for 5 minutes, the culture supernatant was collected, and, the amounts of IL-4 and IL-5 produced in each supernatant were determined by ELISA [mouse IL-4 ELISA kit (produced by Endogen, USA); mouse IL-5 ELISA kit (produced by Endogen, USA)].

IL-4 [4] = assay: Ascaris-immunized mouse splenocytes (in vitro): IL-4 production, ELISA; type: cell-based, Balb/c mice; settings: Splenocyte, 72 h, 25 µM drug, 40 µg/ml DNP-ascaris, 3 days, production in absence of compound taken as 100%, read-out: Suppression Rate (%) IL-4
Description: as §1
as §3, with “plate containing a drug (25 µM),” for “plate”, “µg/ml,” for “µg/ml”, “amount” for “amounts”, “IL-4” for “IL-4 and IL-5”, “was” for “were”, “Endogen,” for “Endogen, USA); mouse IL-5 ELISA kit (produced by Endogen,”

[5] = system: ovalbumin-immunized mouse splenocytes; assay: Ovalbumin-immunized mouse splenocytes (oral dosing): OVA-specific growth response, MTT; type: in vivo, Balb/c mice; settings: 100 mg/kg orally for two weeks; splenocytes cultured with 10 ug/ml OVA 3 days; non-sensitized taken as 1 (sensitized 0.5% MC control 2.07)
Description: Method: Seven-week-old made Balb/c mice (Charles River Japan) were used. Mice were immunized i.p. with 1 ug ovalbumin (OVA, albumin chicken egg grade III; Sigma, USA) in aluminium hydroxide hydrate gel suspension (Alum, ISL Co., Ltd., Japan) twice at an unterval of a week. Two weeks after first immunization, spleens were asceptically removed, and single cell suspension was prepared in RPMI-1640 (Bio Whittaker, Inc., USA) containing 10% heat-inactivated fetal calf serum (FCS, Bio Whittaker, Inc., USA), 50 uM 2-mercaptoethanol, 2 mM L-glutamine, and 20 ug/ml gentamicin. Compound 1((+)-7-(3,5,6-trimethyl-1,4-benzoquino-2-yl)-7-phenylheptonoic acid) at 100 mg/kg suspended with 0.5% methyl cellulose (MC) was given orally in a volume of 10 ml/kg for two weeks from a day before first immunization. […]
To study the effect of drug on the proliferation, 50 ul of 3 mg/ml 3(4,5-dimethylthiazol-2-yl)-2,5-diphenyltetrazolium bromide (MTT, Dojinedo Labs., Japan) resolved in phosphate buffered saline (PBS) was added into each well for final 6 hours of culture. The culture was completed by added 50 ul of 10% SDS resolved into 0.1 N HCl solution and after kept in 37°C for 18 hours, the absorbance at 620 nm was measured.

IL-4 [6] = assay: Ovalbumin-immunized mouse splenocytes (oral dosing): IL-4 production, ELISA; type: in vivo, Balb/c mice; settings: 100 mg/kg orally for two weeks, 10 ug/ml OVA 3 days
Description: (§4) Method: Seven-week-old made Balb/c mice (Charles River Japan) were used. Mice were immunized i.p. with 1 ug ovalbumin (OVA, albumin chicken egg grade III; Sigma, USA) in aluminium hydroxide hydrate gel suspension (Alum, ISL Co., Ltd., Japan) twice at an unterval of a week. Two weeks after first immunization, spleens were asceptically removed, and single cell suspension was prepared in RPMI-1640 (Bio Whittaker, Inc., USA) containing 10% heat-inactivated fetal calf serum (FCS, Bio Whittaker, Inc., USA), 50 uM 2-mercaptoethanol, 2 mM L-glutamine, and 20 ug/ml gentamicin. Compound 1((+)-7-(3,5,6-trimethyl-1,4-benzoquino-2-yl)-7-phenylheptonoic acid) at 100 mg/kg suspended with 0.5% methyl cellulose (MC) was given orally in a volume of 10 ml/kg for two weeks from a day before first immunization. Splenocytes (3.3 × 10^6 cells) were cultured with 10 ug/ml OVA in […] wells of a 96-well round-bottomed tissue culture plate (Sumitomo Bakelite Co., Ltd., Japan) and were kept in a humidified incubation at 37°C in 5% CO2 in air for three days.
(§5) To study the effect of the drug on the cytokine production, after centrifuged at 200×g for 5 minutes, the supernatant of the culture well was removed and its IL-4 and IL-5 contents were measured by ELISA kits (Endogen, USA).

IL-5 mRNA = IL-5 mRNA expression in ovalbumin-immunized mouse splenocytes (oral dosing), RT-PCR; type: in vivo, Balb/c mice; settings: 10 and 100 mg/kg orally for two weeks; splenocytes cultured with 10 ug/ml OVA for 4, 7 and 24 hours; Fig. 1
Description: Method: Eight-week-old male Balb/c mice (Charles River Japan) immunized i.p. with 1 ug OVA absorbed to 1 mg Alum twice at an unterval of a week. Two weeks after the first immunization, splenocytes were prepared in RPMI-1640 (BioWhittaker, Inc., USA) containing 10% heat-inactivated fetal bovine serum (FBS, Bio Whittaker, Inc., USA), 50 uM 2-mercaptoethanol, 2 mM L-glutamine, and 20 ug/ml gentamicin. Compound 1 ((±)-7-(3,5,6-trimethyl-1,4-benzoquino-2-yl)-7-phenylheptonoic acid) at 10 and 100 mg/kg suspended with 0.5% methyl cellulose (MC) was given orally in a volume of 20 ml/kg for two weeks from a day before first immunization. […] Following the heat inactivation at 95°C for 10 min, one fifth of the cDNA mixtures was amplified by Ex Taq DNA polymerase (Takara Shuzoh, Japan) with the appropriate oligonucleatide primers (mouse IL-5 and β-actin amplimer set (Clontech). A DNA Thermal Cycler (Perkin Elmer) was used for 50 DNA amplification cycles, with a denaturation step at 95°C for 1 min, an annealing step at 55°C for 2 min, and an extension step at 72°C for 3 min. Twenty percent of the amplified DNA was analyzed by electrophoresis in a 2% GTG agarose gel. After staining with ethidium bromide, the DNA band was photographed under UV light. The data of the negatives were analyzed by NIH Image 1.55 software. […]

IL-5 [7] = assay: Ovalbumin-immunized mouse splenocytes (oral dosing): IL-5 production, ELISA; type: in vivo, Balb/c mice; settings: 100 mg/kg orally for two weeks, 10 ug/ml OVA 3 days
Description: as §4, §5

IL-4 [8] = assay: Ascaris-immunized mouse splenocytes (in vivo dosing): IL-4 production, ELISA; parameters: species or system Balb/c mice; settings: 100 mg/kg/day orally 5 times weekly for 3 weeks; splenocytes cultured with 40 µg/ml DNP-ascaris 3 days; non-sensitized taken as 1 (sensitized 0.5% MC control 15.8)
Description: as §2, §3

Compound	inhibition at 25 µM [1]	inhibition at 25 µM (IL-4 [4])	also measured
CC1=C(C)C(=O)C(C(CCCCCC(=O)O)c2ccccc2)=C(C)C1=O (racemic) [Compound 1, (±)-7-(3,5,6-trimethyl-1,4-benzoquinon-2-yl)-7-phenylheptanoic acid]	44%	15%	DNP-ascaris Specific Growth Response, Relative Value [2]: 3.37; Cytokine Production, Relative Value IL-5 (IL-5 [3]): 13.6; OVA-Specific Growth Response, Relative Value [5]: 1.75; Cytokine Production, Relative Value Exp. 1 IL-4 (IL-4 [6]; Exp. 1, non-sensitized taken as 1 (sensitized 0.5% MC control 24.7)): 7.7; Cytokine Production, Relative Value Exp. 2 IL-4 (IL-4 [6]; Exp. 2, non-sensitized taken as 1 (sensitized 0.5% MC control 14.2)): 6.94; antigen-stimulated IL-5 mRNA expression (ratio to β-actin PCR product) (IL-5 mRNA): inhibits antigen-stimulated IL-5 mRNA expression; Cytokine Production, Relative Value Exp. 1 IL-5 (IL-5 [7]; Exp. 1, non-sensitized taken as 1 (sensitized 0.5% MC control 7.3)): 4.8; Cytokine Production, Relative Value Exp. 2 IL-5 (IL-5 [7]; Exp. 2, non-sensitized taken as 1 (sensitized 0.5% MC control 31.8)): 21.7; Cytokine Production, Relative Value IL-4 (IL-4 [8]): 9.21
CC1=C(C)C(=O)C(C(CCCCCCC(=O)O)c2ccccc2)=C(C)C1=O (stereo not drawn) [Compound 2]	40%	38%	–
CC1=C(C)C(=O)C(C(CCC(=O)O)c2ccccc2)=C(C)C1=O (stereo not drawn) [Compound 3]	36%	38%	–
CC1=C(C)C(=O)C(C(CCCCCCCCC(=O)O)c2ccccc2)=C(C)C1=O (stereo not drawn) [Compound 4]	60%	87%	–
COC1=C(OC)C(=O)C(C(CCCCCO)c2ccc(OC)cc2)=C(C)C1=O (stereo not drawn) [Compound 5]	46%	80%	–
COC1=C(OC)C(=O)C(C(CCCCCC(=O)O)c2ccc(C(C)C)cc2)=C(C)C1=O (stereo not drawn) [Compound 6]	33%	57%	–

— patent publication EP0719552A2, “Pharmaceutical composition comprising a quinone derivative or a hydroquinone thereof for treating dermatitis” (Takeda Chemical Industries, Ltd., priority 1994, dated 1996)
